SMILES strings stand for the structures.

In this assay the target is T1, recombinant human NK3 receptor (Homo sapiens, UniProt P29371).
T1 construct: expressed in transfected cells; host or cells: HEK293 cells (transient expression), membranes
T1 sequence (P29371 1-465): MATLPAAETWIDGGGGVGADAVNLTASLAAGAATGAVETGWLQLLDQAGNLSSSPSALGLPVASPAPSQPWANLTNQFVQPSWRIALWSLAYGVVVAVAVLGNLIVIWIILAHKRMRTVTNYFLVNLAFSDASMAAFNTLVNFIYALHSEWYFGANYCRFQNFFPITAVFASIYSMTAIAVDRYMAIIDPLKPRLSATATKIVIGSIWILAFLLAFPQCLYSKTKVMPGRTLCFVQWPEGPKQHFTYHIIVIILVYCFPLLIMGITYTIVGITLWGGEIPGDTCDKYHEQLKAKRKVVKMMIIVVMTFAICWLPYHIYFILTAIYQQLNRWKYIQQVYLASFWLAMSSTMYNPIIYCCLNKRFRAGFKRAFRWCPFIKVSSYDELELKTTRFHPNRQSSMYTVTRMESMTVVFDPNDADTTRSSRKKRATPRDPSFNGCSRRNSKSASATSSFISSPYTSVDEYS
The assay can be described thus: [3H]SR142801 competition binding assay, hNK3 receptor binding. The conditions noted are these: [3H]SR142801 displacement; membranes from HEK293 cells transiently expressing recombinant human NK3 receptor; Ki by Cheng-Prussoff from IC50. As for the experimental part: The compounds were investigated in accordance with the tests given hereinafter. [^3H]SR142801 competition binding assay hNK3 receptor binding experiment were performed using [^3H]SR142801 (Catalog No. TRK1035, specific activity: 74.0 Ci/mmol, Amersham, GE Healthcare UK limited, Buckinghamshire, UK) and membrane isolated from HEK293 cells transiently expressing recombinant human NK3 receptor. After thawing, the membrane homogenates were centrifuged at 48,000×g for 10 min at 4° C., the pellets were resuspended in the 50 mM Tris-HCl, 4 mM MnCl2, 1 μM phosphoramidon, 0.1% BSA binding buffer at pH 7.4 to a final assay concentration of 5 μg protein/well. For inhibition experiments, membranes were incubated with [^3H]SR142801 at a concentration equal to KD value of radioligand and 10 concentrations of the inhibitory compound (0.0003-10 μM) (in a total reaction volume of 500 μl) for 75 min at room temperature (RT). At the end of the incubation, membranes were filtered onto unitfilter (96-well white microplate with bonded GF/C filter preincubated 1 h in 0.3% PEI+0.3% BSA, Packard BioScience, Meriden, Conn.) with a Filtermate 196 harvester (Packard BioScience) and washed 4 times with ice-cold 50 mM Tris-HCl, pH 7.4 buffer. Nonspecific binding was measured in the presence of 10 μM SB222200 for both radioligands. The radioactivity on the filter was counted (5 min) on a Packard Top-count microplate scintillation counter with quenching correction after addition of 45 μl of microscint 40 (Can berra Packard S. A., Zürich, Switzerland) and shaking for 1 h. Inhibition curves were fitted according to the Hill equation: y=100/(1+(x/IC50)^nH), where nH=slope factor using Excel-fit 4 software (Microsoft). IC50 values were derived from the inhibition curve and the affinity constant (Ki) values were calculated using the Cheng-Prussoff equation Ki=IC50/(1+[L]/KD) where [L] is the concentration of radioligand and KD is its dissociation constant at the receptor, derived from the saturation isotherm. All experiments were performed in duplicate and the mean±standard error (SEM) of the individual Ki values was calculated.
With `CC(Nc1ccc(C#N)cn1)[C@H]1CCN(C(=O)C2CCN(c3ccc(C#N)cn3)CC2)C[C@@H]1c1ccc(Cl)cc1` (mixture of isomers) [Example 68, 4-{(3S,4S)-3-(4-Chloro-phenyl)-4-[(SR)-1-(5-cyano-pyridin-2-ylamino)-ethyl]-piperidine-1-carbonyl}-3,4,5,6-tetrahydro-2H-[1,2′]bipyridinyl-5′-carbonitrile], the Ki (as a rule, a measure of affinity in units of concentration, obtained from inhibition or displacement) is 1.4 nM.

`C[C@H](Oc1ccc(Cl)cn1)[C@H]1CCN(C(=O)C2CCN(C(=O)C3(C)CC3)CC2)C[C@@H]1c1ccc(Cl)cc1` (racemic) [Example 5, (4-{(3SR, 4SR)-3-(4-Chloro-phenyl)-4-[(SR)-1-(5-chloro-pyridin-2-yloxy)-ethyl]-piperidine-1-carbonyl}-piperidin-1-yl)-(1-methyl-cyclopropyl)-methanone]: the Ki was 4.1 nM.

In the case of `Cc1noc(-c2ccc(C(=O)N3CC[C@H](COc4ccc(Cl)cn4)[C@@H](c4ccc(F)c(F)c4)C3)cc2)n1` (racemic) [Example 31, [(3SR,4SR)-4-(5-Chloro-pyridin-2-yloxymethyl)-3-(3,4-difluoro-phenyl)-piperidin-1-yl]-[4-(3-methyl-[1,2,4]oxadiazol-5-yl)-phenyl]-methanone], the Ki amounted to 8.3 nM.

Regarding `CC1(C(=O)N2CCC(C(=O)N3CC[C@H](COc4ccc(Cl)cn4)[C@@H](c4ccc(F)c(F)c4)C3)CC2)CC1` (racemic) [Example 32, {4-[(3SR,4SR)-4-(5-Chloro-pyridin-2-yloxymethyl)-3-(3,4-difluoro-phenyl)-piperidine-1-carbonyl]-piperidin-1-yl}-(1-methyl-cyclopropyl)-methanone], the Ki stood at 5.8 nM.

Consider `N#Cc1ccc(N2CCC(C(=O)N3CC[C@H](COc4ccc(Cl)cn4)[C@@H](c4ccc(F)c(F)c4)C3)CC2)nc1` (relative stereo) [Example 33], for which the Ki came to 1.3 nM.

On to `C[C@H](Oc1ccc(Cl)cn1)[C@H]1CCN(C(=O)C2CCN(C(=O)C3(C)CC3)CC2)C[C@@H]1c1ccc(Cl)cc1` (stereo in doubt) [Example 7, (4-{(3S,4S)-3-(4-Chloro-phenyl)-4-[(S)-1-(5-chloro-pyridin-2-yloxy)-ethyl]-piperidine-1-carbonyl}-piperidin-1-yl)-(1-methyl-cyclopropyl)-methanone], for which the Ki is 2.6 nM.

For `Cc1cc(C(=O)N2CC[C@H]([C@H](C)Oc3ccc(Cl)cn3)[C@@H](c3ccc(Cl)cc3)C2)cnn1` [Example 10, {(3S,4S)-3-(4-Chloro-phenyl)-4-[(S)-1-(5-chloro-pyridin-2-yloxy)-ethyl]-piperidin-1-yl}-(6-methyl-pyridazin-4-yl)-methanone], the Ki is 3.6 nM.

On to `Cc1noc(-c2ccc(C(=O)N3CC[C@H]([C@H](C)Oc4ccc(Cl)cn4)[C@@H](c4ccc(Cl)cc4)C3)cc2)n1` [Example 11, {(3S,4S)-3-(4-Chloro-phenyl)-4-[(S)-1-(5-chloro-pyridin-2-yloxy)-ethyl]-piperidin-1-yl}-[4-(3-methyl-[1,2,4]oxadiazol-5-yl)-phenyl]-methanone], for which the inhibitory constant (Ki) is 1.8 nM.

For `Cc1nc(-c2ccc(C(=O)N3CC[C@H]([C@H](C)Oc4ccc(Cl)cn4)[C@@H](c4ccc(Cl)cc4)C3)cc2)no1` [Example 12, {(3S,4S)-3-(4-Chloro-phenyl)-4-[(S)-1-(5-chloro-pyridin-2-yloxy)-ethyl]-piperidin-1-yl}-[4-(5-methyl-[1,2,4]oxadiazol-3-yl)-phenyl]-methanone], the Ki turned out to be 2.3 nM.

`C[C@H](Oc1ccc(Cl)cn1)[C@H]1CCN(C(=O)C2CCN(c3ccc(C#N)cn3)CC2)C[C@@H]1c1ccc(Cl)cc1` [Example 13, 4-{(3S,4S)-3-(4-Chloro-phenyl)-4-[(S)-1-(5-chloro-pyridin-2-yloxy)-ethyl]-piperidine-1-carbonyl}-3,4,5,6-tetrahydro-2H-[1,2′]bipyridinyl-5′-carbonitrile]: the Ki stood at 0.3 nM.

`C[C@H](Oc1ccc(Cl)cn1)[C@H]1CCN(C(=O)N2CCN(S(C)(=O)=O)CC2)C[C@@H]1c1ccc(Cl)cc1` [Example 14, {(3S,4S)-3-(4-Chloro-phenyl)-4-[(S)-1-(5-chloro-pyridin-2-yloxy)-ethyl]-piperidin-1-yl}-(4-methanesulfonyl-piperazin-1-yl)-methanone]: the Ki came out at 2.6 nM.

With `C[C@H](Oc1ccc(C(F)(F)F)cn1)[C@H]1CCN(C(=O)C2CCN(C(=O)C3(C)CC3)CC2)C[C@@H]1c1ccc(Cl)cc1` [Example 16, (4-{(3S,4S)-3-(4-Chloro-phenyl)-4-[(S)-1-(5-trifluoromethyl-pyridin-2-yloxy)-ethyl]-piperidine-1-carbonyl}-piperidin-1-yl)-(1-methyl-cyclopropyl)-methanone], the inhibition constant Ki is 1.6 nM.

On to `Cc1cc(C(=O)N2CC[C@H]([C@H](C)Oc3ccc(C(F)(F)F)cn3)[C@@H](c3ccc(Cl)cc3)C2)cnn1` [Example 17, {(3S,4S)-3-(4-Chloro-phenyl)-4-[(S)-1-(5-trifluoromethyl-pyridin-2-yloxy)-ethyl]-piperidin-1-yl}-(6-methyl-pyridazin-4-yl)-methanone], for which the Ki came out at 5.6 nM.

Turning to `Cc1noc(-c2ccc(C(=O)N3CC[C@H]([C@H](C)Oc4ccc(C(F)(F)F)cn4)[C@@H](c4ccc(Cl)cc4)C3)cc2)n1` [Example 18, {(3S,4S)-3-(4-Chloro-phenyl)-4-[(S)-1-(5-trifluoromethyl-pyridin-2-yloxy)-ethyl]-piperidin-1-yl}-[4-(3-methyl-[1,2,4]oxadiazol-5-yl)-phenyl]-methanone], the Ki was 1.2 nM.

With `Cc1nc(-c2ccc(C(=O)N3CC[C@H]([C@H](C)Oc4ccc(C(F)(F)F)cn4)[C@@H](c4ccc(Cl)cc4)C3)cc2)no1` [Example 19, {(3S,4S)-3-(4-Chloro-phenyl)-4-[(S)-1-(5-trifluoromethyl-pyridin-2-yloxy)-ethyl]-piperidin-1-yl}-[4-(5-methyl-[1,2,4]oxadiazol-3-yl)-phenyl]-methanone], the Ki turned out to be 1.4 nM.

As to `C[C@H](Oc1ccc(C(F)(F)F)cn1)[C@H]1CCN(C(=O)C2CCN(c3ccc(C#N)cn3)CC2)C[C@@H]1c1ccc(Cl)cc1` [Example 20, 4-{(3S,4S)-3-(4-Chloro-phenyl)-4-[(S)-1-(5-trifluoromethyl-pyridin-2-yloxy)-ethyl]-piperidine-1-carbonyl}-3,4,5,6-tetrahydro-2H-[1,2′]bipyridinyl-5′-carbonitrile], the Ki is 0.2 nM.

As for `C[C@H](Oc1ccc(C(F)(F)F)cn1)[C@H]1CCN(C(=O)N2CCN(S(C)(=O)=O)CC2)C[C@@H]1c1ccc(Cl)cc1` [Example 21, {(3S,4S)-3-(4-Chloro-phenyl)-4-[(S)-1-(5-trifluoromethyl-pyridin-2-yloxy)-ethyl]-piperidin-1-yl}-(4-methanesulfonyl-piperazin-1-yl)-methanone], the inhibition constant Ki was 4.7 nM.

For the compound `C[C@H](Oc1ccc(C#N)cn1)[C@H]1CCN(C(=O)C2CCN(C(=O)C3(C)CC3)CC2)C[C@@H]1c1ccc(Cl)cc1` [Example 23, 6-((S)-1-{(3S,4S)-3-(4-Chloro-phenyl)-1-[1-(1-methyl-cyclopropanecarbonyl)-piperidine-4-carbonyl]-piperidin-4-yl}-ethoxy)-nicotinonitrile], the inhibitory constant (Ki) came to 1.1 nM.

As to `Cc1cc(C(=O)N2CC[C@H]([C@H](C)Oc3ccc(C#N)cn3)[C@@H](c3ccc(Cl)cc3)C2)cnn1` [Example 24, 6-{(S)-1-[(3S,4S)-3-(4-Chloro-phenyl)-1-(6-methyl-pyridazine-4-carbonyl)-piperidin-4-yl]-ethoxy}-nicotinonitrile], the Ki was determined as 8.7 nM.

Consider `Cc1noc(-c2ccc(C(=O)N3CC[C@H]([C@H](C)Oc4ccc(C#N)cn4)[C@@H](c4ccc(Cl)cc4)C3)cc2)n1` [Example 25, 6-((S)-1-{(3S,4S)-3-(4-Chloro-phenyl)-1-[4-(3-methyl-[1,2,4]oxadiazol-5-yl)-benzoyl]-piperidin-4-yl}-ethoxy)-nicotinonitrile], for which the Ki turned out to be 1.5 nM.

The record behind these values is patent US8324248B2, “Piperidine derivatives as NK3 receptor antagonists” (Hoffmann-La Roche Inc., priority 2009, dated 2012).
